We go through two compounds from ChEMBL document CHEMBL1144739, “[6]-gingerol induces Ca2+ mobilization in Madin-Darby canine kidney cells” (2008).

Activity calls are given as the source filed them. No cut-off for these calls is given here.

Experiment [1] deals with MDCK. Kind of experiment: Elevation of drug-induced intracellular calcium level in MDCK cells at 1 uM. In kind it is functional, Canis lupus familiaris. A general note: Calcium assays in cells follow changes in intracellular calcium, usually with a dye or a luminescent sensor.
Experiment [2] deals with MDCK. Kind of experiment: Inhibition of phospholipase C in dog MDCK cells assessed as change in basal intracellular calcium level in presence of U73122. The conditions noted are these: Canis lupus familiaris. In kind it is cell-based.
The subject of experiment [3] is MDCK. The experiment is described as follows: Increase in drug-induced intracellular calcium level in dog MDCK cells at 0.1 uM. The experiment is classed as functional, cell-based. Particulars: Canis lupus familiaris.
In experiment [4] the test system is MDCK. Kind of experiment: Increase in drug-induced intracellular calcium level in dog MDCK cells in presence of extracellular calcium. In kind it is functional, cell-based. The conditions noted are these: Canis lupus familiaris.
Experiment [5] relates to MDCK. Kind of experiment: Inhibition of protein kinase C in dog MDCK cells assessed as change in intracellular calcium level in presence of GF109203 X. The experiment is classed as cell-based. Particulars: Canis lupus familiaris.
The test system of experiment [6] is MDCK. The experiment is described as follows: Inhibition of drug-induced intracellular calcium level in dog MDCK cells at 20 uM in absence of extracellular calcium. The experiment is classed as functional, Canis lupus familiaris. Also noted: scale not given: the % may be the effect or the level left.
For experiment [7], the system named is MDCK. The experiment is described as follows: Activation of protein kinase C in dog MDCK cells assessed as change in intracellular calcium level in presence of phorbol myristate acetate. Particulars: Canis lupus familiaris. The experiment is classed as cell-based.
Experiment [8] concerns MDCK. Kind of experiment: Increase in drug-induced intracellular calcium level in dog MDCK cells at 10 uM after 250 seconds. In kind it is functional, Canis lupus familiaris.

Turning to `C/C=C(/C)C(=O)O[C@H]1C(C)=C2[C@H]([C@@H]1OC(=O)CCCCCCC)[C@@](C)(OC(C)=O)C[C@H](OC(=O)CCC)[C@@]1(O)[C@H]2OC(=O)[C@@]1(C)O` [THAPSIGARGIN], in the experiment on MDCK [1], the Activity is on record as 216 nM.
Turning to `CCCCC[C@H](O)CC(=O)CCc1ccc(O)c(OC)c1` [GINGEROL], the outcome with MDCK [2] and with MDCK [3] was inactive. The Activity result with MDCK [4] was “Dose-dependent effect”; with MDCK [6], 78%; in the experiment with MDCK [8], 295 nM. Also, the result in the experiment on MDCK [5] and with MDCK [7] was Active.
